# Test results from the supplement of paper PMC11424490.
# What was measured:
# Assay in all cases: combination cScore with sotorasib (Bliss gap around IC50) (%PoC); higher = stronger additive effect
# NCI-H2122 = tested on: NCI-H2122
# Summary of the method: (§1)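 NCI-H2122, NCI-H358 and SW837 cells (500 or 800 per well, 384-well plates) were dosed in concentration matrices after 24 h and grown 72 h, or 144 h for SW837. CellTiter-Glo luminescence was normalised to vehicle wells as percent of control and fitted with four-parameter curves. The score averages the Bliss-independence gap (expected minus measured viability) over a field around both monotherapy IC50s, or at the top concentrations when no IC50 was reached.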
# NCI-H358 = tested on: NCI-H358
# Summary of the method: as §1
# SW837 = tested on: SW837
# Summary of the method: as §1
SMILES,combination cScore with sotorasib (NCI-H2122),combination cScore with sotorasib (NCI-H358),combination cScore with sotorasib (SW837)
COc1cc(Nc2ncc(F)c(Nc3ccc4c(n3)N(COP(=O)(O)O)C(=O)C(C)(C)O4)n2)cc(OC)c1OC [Fostamatinib] + C=CC(=O)N1CCN(c2nc(=O)n(-c3c(C)ccnc3C(C)C)c3nc(-c4c(O)cccc4F)c(F)cc23)[C@@H](C)C1 [sotorasib],23.3,8.55,23.7
Cc1nc(Nc2n[nH]c3c2CN(C(=O)N[C@H](CN(C)C)c2ccccc2)C3(C)C)c2sccc2n1 + C=CC(=O)N1CCN(c2nc(=O)n(-c3c(C)ccnc3C(C)C)c3nc(-c4c(O)cccc4F)c(F)cc23)[C@@H](C)C1 [sotorasib],17.5,-0.36,4.19
CC1(N)CCN(c2cnc(-c3cccc(Cl)c3Cl)c(N)n2)CC1 [SHP099] + C=CC(=O)N1CCN(c2nc(=O)n(-c3c(C)ccnc3C(C)C)c3nc(-c4c(O)cccc4F)c(F)cc23)[C@@H](C)C1 [sotorasib],19.1,7.84,9.98
COC(=O)[C@]12CCC(C)(C)C[C@H]1[C@H]1C(=O)C=C3[C@@]4(C)C=C(C#N)C(=O)C(C)(C)[C@@H]4CC[C@@]3(C)[C@]1(C)CC2 [Bardoxolone methyl] + C=CC(=O)N1CCN(c2nc(=O)n(-c3c(C)ccnc3C(C)C)c3nc(-c4c(O)cccc4F)c(F)cc23)[C@@H](C)C1 [sotorasib],13,-1.43,3
C[C@@H]1CN(CC(=O)Nc2ccc3c(c2)Cc2cccc(-c4cc(=O)cc(N5CCOCC5)o4)c2S3)C[C@H](C)O1 + C=CC(=O)N1CCN(c2nc(=O)n(-c3c(C)ccnc3C(C)C)c3nc(-c4c(O)cccc4F)c(F)cc23)[C@@H](C)C1 [sotorasib],17.1,5.09,9.38
Cc1nc(-c2cn3c(n2)-c2ccc(-c4cnn(C(C)(C)C(N)=O)c4)cc2OCC3)n(C(C)C)n1 [Taselisib] + C=CC(=O)N1CCN(c2nc(=O)n(-c3c(C)ccnc3C(C)C)c3nc(-c4c(O)cccc4F)c(F)cc23)[C@@H](C)C1 [sotorasib],25.3,7.14,32.8
Nc1cc(C(F)(F)F)c(-c2cc(N3CCOCC3)nc(N3CCOCC3)n2)cn1 [BKM120] + C=CC(=O)N1CCN(c2nc(=O)n(-c3c(C)ccnc3C(C)C)c3nc(-c4c(O)cccc4F)c(F)cc23)[C@@H](C)C1 [sotorasib],16.9,4.4,15.9
C[C@H](Nc1ccc2c(c1)OCCn1cc(N3C(=O)OC[C@H]3C(F)F)nc1-2)C(N)=O [GDC-0077] + C=CC(=O)N1CCN(c2nc(=O)n(-c3c(C)ccnc3C(C)C)c3nc(-c4c(O)cccc4F)c(F)cc23)[C@@H](C)C1 [sotorasib],25.4,3.7,18.3
CS(=O)(=O)CCNCc1ccc(-c2ccc3ncnc(Nc4ccc(OCc5cccc(F)c5)c(Cl)c4)c3c2)o1 [Lapatinib] + C=CC(=O)N1CCN(c2nc(=O)n(-c3c(C)ccnc3C(C)C)c3nc(-c4c(O)cccc4F)c(F)cc23)[C@@H](C)C1 [sotorasib],28.9,12.8,15.4
C#Cc1cccc(Nc2ncnc3cc(OCCOC)c(OCCOC)cc23)c1 [Erlotinib] + C=CC(=O)N1CCN(c2nc(=O)n(-c3c(C)ccnc3C(C)C)c3nc(-c4c(O)cccc4F)c(F)cc23)[C@@H](C)C1 [sotorasib],27.4,10.2,23
CCN1CCN(Cc2ccc(Nc3ncc(F)c(-c4cc(F)c5nc(C)n(C(C)C)c5c4)n3)nc2)CC1 [Abemaciclib] + C=CC(=O)N1CCN(c2nc(=O)n(-c3c(C)ccnc3C(C)C)c3nc(-c4c(O)cccc4F)c(F)cc23)[C@@H](C)C1 [sotorasib],9.29,6.78,19.6
Cc1ccc(C(=O)Nc2ccc(CN3CCN(C)CC3)c(C(F)(F)F)c2)cc1C#Cc1cnc2cccnn12 [Ponatinib] + C=CC(=O)N1CCN(c2nc(=O)n(-c3c(C)ccnc3C(C)C)c3nc(-c4c(O)cccc4F)c(F)cc23)[C@@H](C)C1 [sotorasib],19.1,0.16,1.65
O=C(c1cc(Cc2n[nH]c(=O)c3ccccc23)ccc1F)N1CCN(C(=O)C2CC2)CC1 [Olaparib] + C=CC(=O)N1CCN(c2nc(=O)n(-c3c(C)ccnc3C(C)C)c3nc(-c4c(O)cccc4F)c(F)cc23)[C@@H](C)C1 [sotorasib],6.94,1.2,8.33
CNS(=O)(=O)Nc1nccc(Cc2c(C)c3ccc(Oc4ncccn4)cc3oc2=O)c1F + C=CC(=O)N1CCN(c2nc(=O)n(-c3c(C)ccnc3C(C)C)c3nc(-c4c(O)cccc4F)c(F)cc23)[C@@H](C)C1 [sotorasib],8.14,4.31,5.63
CCN(CCCOc1ccc2c(Nc3cc(CC(=O)Nc4cccc(F)c4)[nH]n3)ncnc2c1)CCOP(=O)(O)O [AZD-1152] + C=CC(=O)N1CCN(c2nc(=O)n(-c3c(C)ccnc3C(C)C)c3nc(-c4c(O)cccc4F)c(F)cc23)[C@@H](C)C1 [sotorasib],11.3,1.15,9.37
CC[C@H](Nc1ncnc2[nH]cnc12)c1nc2cccc(F)c2c(=O)n1-c1ccccc1 [Cal-101] + C=CC(=O)N1CCN(c2nc(=O)n(-c3c(C)ccnc3C(C)C)c3nc(-c4c(O)cccc4F)c(F)cc23)[C@@H](C)C1 [sotorasib],29.1,3.19,7.76
COc1cc(Nc2c(C#N)cnc3cc(OCCCN4CCN(C)CC4)c(OC)cc23)c(Cl)cc1Cl [Bosutinib] + C=CC(=O)N1CCN(c2nc(=O)n(-c3c(C)ccnc3C(C)C)c3nc(-c4c(O)cccc4F)c(F)cc23)[C@@H](C)C1 [sotorasib],8.9,5.71,11.2
C[C@H](NC(=O)c1c(N)nn2cccnc12)c1cc2cccc(C#Cc3cnn(C)c3)c2c(=O)n1-c1ccccc1 [IPI-549] + C=CC(=O)N1CCN(c2nc(=O)n(-c3c(C)ccnc3C(C)C)c3nc(-c4c(O)cccc4F)c(F)cc23)[C@@H](C)C1 [sotorasib],15.1,2.47,4.45
CC(C)n1nc(-c2ccc3oc(N)nc3c2)c2c(N)ncnc21 [MLN-0128] + C=CC(=O)N1CCN(c2nc(=O)n(-c3c(C)ccnc3C(C)C)c3nc(-c4c(O)cccc4F)c(F)cc23)[C@@H](C)C1 [sotorasib],6.3,10.3,15.9
CCc1c2c(nc3ccc(O)cc13)-c1cc3c(c(=O)n1C2)COC(=O)[C@]3(O)CC [SN-38] + C=CC(=O)N1CCN(c2nc(=O)n(-c3c(C)ccnc3C(C)C)c3nc(-c4c(O)cccc4F)c(F)cc23)[C@@H](C)C1 [sotorasib],11.8,2.64,2.7
CCCc1cc(C)[nH]c(=O)c1CNC(=O)c1cc(-c2ccnc(N3CCN(C)CC3)c2)cc2c1cnn2C(C)C [GSK343] + C=CC(=O)N1CCN(c2nc(=O)n(-c3c(C)ccnc3C(C)C)c3nc(-c4c(O)cccc4F)c(F)cc23)[C@@H](C)C1 [sotorasib],8.7,2.88,9.75
COc1cc(CCc2cc(NC(=O)c3ccc(N4CC(C)NC(C)C4)cc3)n[nH]2)cc(OC)c1 (stereo not drawn) [AZD4547] + C=CC(=O)N1CCN(c2nc(=O)n(-c3c(C)ccnc3C(C)C)c3nc(-c4c(O)cccc4F)c(F)cc23)[C@@H](C)C1 [sotorasib],11.8,5.01,8.33
O=P1(N(CCCl)CCCl)NCCCO1 (stereo not drawn) [Cyclophosphamide] + C=CC(=O)N1CCN(c2nc(=O)n(-c3c(C)ccnc3C(C)C)c3nc(-c4c(O)cccc4F)c(F)cc23)[C@@H](C)C1 [sotorasib],-0.02,4.33,-10.5
CC(=O)c1c(C)c2cnc(Nc3ccc(N4CCNCC4)cn3)nc2n(C2CCCC2)c1=O [Palbociclib] + C=CC(=O)N1CCN(c2nc(=O)n(-c3c(C)ccnc3C(C)C)c3nc(-c4c(O)cccc4F)c(F)cc23)[C@@H](C)C1 [sotorasib],8.77,3.92,38.3
CC(C)N(CCCNC(=O)Nc1ccc(C(C)(C)C)cc1)C[C@H]1O[C@@H](n2ccc3c(N)ncnc32)[C@H](O)[C@@H]1O + C=CC(=O)N1CCN(c2nc(=O)n(-c3c(C)ccnc3C(C)C)c3nc(-c4c(O)cccc4F)c(F)cc23)[C@@H](C)C1 [sotorasib],8.67,2.07,1.84
O=C(O)CNC(=O)c1c(O)c2ccccc2n(Cc2ccccc2)c1=O [IOX2] + C=CC(=O)N1CCN(c2nc(=O)n(-c3c(C)ccnc3C(C)C)c3nc(-c4c(O)cccc4F)c(F)cc23)[C@@H](C)C1 [sotorasib],21.3,0.66,17.9
